{"source": "patent US8410310B2", "about": "“Trypsin-like serine protease inhibitors, and their preparation and use” (The Medicines Company (Leipzig) GmbH, priority 2006, dated 2013)", "key": {"[1]": {"system": "t-PA-induced fibrinolysis in plasma", "assay": "Plasma fibrinolysis assay (turbidometric)", "format": "biochemical", "conditions": "human plasma, t-PA 50 U/mL; read-out: IC50 on t-PA-induced fibrinolysis in plasma (median [25%; 75% percentile])", "procedure": "(§1) Venous blood was withdrawn from the antecubital vein from healthy volunteers after written informed consent in accordance with local and federal guidelines with approval of the local review board (Ethikkommission, Klinikum Charité, Sauerbruchweg 5, 10117 Berlin). The blood was mixed with 0.11 mol/L sodium citrate (1:10). For ROTEM® analysis, whole citrated blood was used within 8 h after collection. Platelet-rich plasma (PRP) was prepared from citrated blood by centrifugation at 330×g for 10 min at room temperature, platelet-poor plasma (PPP) was collected following centrifugation at 1220×g for 12 min. The PRP was then adjusted to 3×10^8 platelets per mL using the autologous PPP. PRP was maintained at room temperature for less than 4 h before analysis. The remaining PPP was subjected to a high-speed centrifugation at 40,000×g for 30 min at 4° C. to remove any particulate material and was then stored at −70° C. until use.\n(§2) The antifibrinolytic activity of Compound No. 3 in comparison to aprotinin and tranexamic acid was investigated in plasma and whole blood assays. In both assays, tissue factor was added to initiate rapid clot formation via the extrinsic pathway which produces a clot that remains stable for several hours under normal conditions. Supplementation of plasma or whole blood with tissue-type plasminogen activator (t-PA) before stimulation results in activation of endogenous plasminogen and thus fibrinolysis while the initial clot formation is not impaired. […] A final concentration of 50 U/mL and 100 U/mL in plasma and whole blood, respectively, was chosen to achieve complete lysis within about 60 min. In the presence of antifibrinolytics, clot lysis is delayed in a concentration-dependent manner.\nInhibition of fibrinolysis in plasma was examined using a turbidometric method in 96-well flat-bottom plates. The time course of clot formation and lysis, reflected by an initial increase and subsequent decrease in turbidity, was recorded by continuously measuring the optical density (OD) at 405 nm. Similar models have been used widely to study the clot lysis process in human plasma (Kim et al., J. Thromb. Haemost. 5: 1250-6, 2007) as well as its inhibition by antifibrinolytic drugs (Sperzel et al., J. Thromb. Haemost. 5: 2113-8, 2007). Frozen and thawed human plasma (PPP) was pre-incubated with test compound or vehicle (Owren's Veronal buffer) for 5 min at 37° C. […] OD at 405 nm was monitored every 45 s for 180 min at 37° C. with a microplate reader (POLARstar OPTIMA, BMG Labtech, Offenburg, Germany). Fibrinolysis was quantified as the relative decrease in OD at 45 min after the maximum OD was reached. […]"}, "[2]": {"system": "t-PA-induced lysis of whole blood clots", "assay": "Whole blood fibrinolysis assay (ROTEM, EXTEM with t-PA)", "format": "cell-based, human", "conditions": "human whole blood, t-PA 100 U/mL, Ly60; read-out: concentration resulting in 50% suppression of clot lysis (IC50, median [25%; 75% percentile])", "procedure": "as §1, §2\nFibrinolysis in whole blood was studied with rotational thromboelastometry (Luddington, Clin. Lab. Haematol. 27: 81-90, 2005) using a computerized, multi-channel ROTEM® instrument (Pentapharm, Munich, Germany) (Ganter et al., Anesth. Analg. 106: 1366-75, 2008). Activation of test samples accelerated the measurement process and enhanced reproducibility compared with conventional thromboelastography. To allow observation of fibrinolysis, ROTEM® analysis with tissue factor activation (EXTEM) was modified through addition of t-PA (Nielsen et al. Blood Coagul. Fibrinolysis 17: 75-81, 2006). Citrated blood was pre-incubated at 37° C. for 5 min with test compound or saline before tissue factor, CaCl2 and t-PA (100 U/mL final concentration) were added to start the reaction. Fibrinolysis was determined by measuring loss of clot strength with time and was recorded as Ly60 (percentage reduction of the maximum amplitude at 60 min after the onset of clotting). In control samples without inhibitor, clots were lysed completely within 60 min, such that Ly60 was above 90%. By plotting Ly60 versus test compound concentration, IC50 values for each compound were calculated."}}}
{"smiles": "NC[C@H]1CC[C@H](C(=O)O)CC1", "note": "[tranexamic acid, trans-4-(aminomethyl)cyclo-hexanecarboxylic acid]", "values": [{"measurement": "IC50", "setting": "[1]", "result": 4.22, "unit": "µM"}, {"measurement": "IC50", "setting": "[2]", "result": 2.75, "unit": "µM"}]}
